The results in this text go back to patent US9546152B2 (MERCK SHARP & DOHME CORP., priority 2012, dated 2017).

Like-named read-outs stand apart in the source and are kept apart here.

For one assay, the target named is rat orexin-1 receptor (Rattus norvegicus (Rat), UniProt P56718). Briefly: FLIPR Ca2+ Flux Assay, orexin-1 receptor. Particulars: read-out: hOX1R FLIPR IC50. It is filed as cell-based. In a few lines:
(§1)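 FLIPR Ca2+ flux, CHO cells, rat OX1R / human OX2R; 5 min cpd preinc, then 70 pM Ala-6,12 hOrexin-A final; buffer pH 7.4 w/ 2.5 mM probenecid; peak vs agonist-alone.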

The target of assay [1] is T1, human orexin-2 receptor (Homo sapiens (Human), UniProt O43614). Briefly: FLIPR Ca2+ Flux Assay, orexin-2 receptor. It is filed as cell-based. The note with it: read-out: hOX2R FLIPR IC50. The gist of the method:
as §1

Assay [2] deals with orexin-1 receptor (hOX1R) (Rattus norvegicus, UniProt P56718). Nature of the assay: radioligand binding assay, orexin-1 receptor. The note with it: membranes prepared from CHO cells expressing the OX1 receptor; read-out: hOX1R BIND hKi. The method, then:
In a typical experiment the OX1 and OX2 receptor antagonistic activity of the compounds of the present invention was determined in accordance with the following experimental method. For intracellular calcium measurements, Chinese hamster ovary (CHO) cells expressing the rat orexin-1 receptor or the human orexin-2 receptor, are grown in Iscove's modified DMEM containing 2 mM L-glutamine, […], 1% hypoxanthine-thymidine supplement, 100 U/ml penicillin, 100 μg/ml streptomycin and 10% heat-inactivated fetal calf serum (FCS). The cells are seeded at 20,000 cells/well into Becton-Dickinson black 384-well clear bottom sterile plates coated with poly-D-lysine. […] Within the Fluorescent Imaging Plate Reader (FLIPR, Molecular Devices), test compounds are added to the plate in a volume of 25 μl, incubated for 5 min and finally 25 μl of agonist is added. Fluorescence is measured for each well at 1 second intervals for 5 minutes and the height of each fluorescence peak is compared to the height of the fluorescence peak induced by 70 pM Ala-6,12 orexin-A with buffer in place of antagonist. […] Alternatively, compound potency can be assessed by a radioligand binding assay (described in Bergman et. al. Bioorg. Med. Chem. Lett. 2008, 18, 1425-1430) in which the inhibition constant (Ki) is determined in membranes prepared from CHO cells expressing either the OX1 or OX2 receptor. […]

Assay [3] has as its target T1, human orexin-2 receptor. Briefly: radioligand binding assay, orexin-2 receptor. The note with it: read-out: hOX2R BIND hKi.
Setting [4] is: CHO cells expressing the rat orexin-1 receptor, agonist 70 pM Ala-6,12 human orexin-A.
[5] abbreviates: CHO cells expressing the human orexin-2 receptor, agonist 70 pM Ala-6,12 human orexin-A.
The mark [6] stands for this setting: membranes prepared from CHO cells expressing the OX2 receptor.

T1 sequence (O43614 whole entry): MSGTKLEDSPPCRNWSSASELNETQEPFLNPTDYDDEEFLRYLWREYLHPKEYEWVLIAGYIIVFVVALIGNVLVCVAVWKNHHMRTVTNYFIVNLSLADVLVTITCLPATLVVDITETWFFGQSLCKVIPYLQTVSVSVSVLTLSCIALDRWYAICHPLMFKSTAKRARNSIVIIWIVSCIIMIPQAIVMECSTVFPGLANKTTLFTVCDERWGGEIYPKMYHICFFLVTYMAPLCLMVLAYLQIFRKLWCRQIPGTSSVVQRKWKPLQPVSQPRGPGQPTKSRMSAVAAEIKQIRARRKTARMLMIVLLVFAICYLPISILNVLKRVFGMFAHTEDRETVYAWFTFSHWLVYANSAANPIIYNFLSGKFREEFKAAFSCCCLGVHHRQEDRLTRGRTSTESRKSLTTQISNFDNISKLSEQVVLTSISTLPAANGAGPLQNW
Chain of rat orexin-1 receptor (P56718 whole entry): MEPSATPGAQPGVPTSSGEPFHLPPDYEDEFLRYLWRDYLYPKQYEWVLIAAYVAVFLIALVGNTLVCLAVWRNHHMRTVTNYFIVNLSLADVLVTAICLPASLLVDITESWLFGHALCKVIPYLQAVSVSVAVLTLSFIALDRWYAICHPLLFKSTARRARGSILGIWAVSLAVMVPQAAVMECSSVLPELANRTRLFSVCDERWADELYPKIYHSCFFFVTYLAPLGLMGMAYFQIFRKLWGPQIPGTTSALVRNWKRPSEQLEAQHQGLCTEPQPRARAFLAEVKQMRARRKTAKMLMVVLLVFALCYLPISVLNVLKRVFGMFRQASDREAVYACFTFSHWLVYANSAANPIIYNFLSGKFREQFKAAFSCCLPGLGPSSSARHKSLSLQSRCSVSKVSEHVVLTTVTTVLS
Chain of orexin-1 receptor (hOX1R) (P56718 whole entry, looked up): as the sequence (P56718 whole entry) above

As to `COc1c(C#N)ccnc1O[C@@H]1CC[C@@H](C)N(C(=O)c2cccc(F)c2-c2ncccn2)C1` [Example 109], the IC50 on rat orexin-1 receptor was 2.85 µM; on human orexin-2 receptor [1], 0.026 µM. Further, the Ki in assay [2] turned out to be 0.482 µM; on human orexin-2 receptor [3], 0.0011 µM.

With `COc1ccc(C(=O)N2C[C@H](Oc3nccc(C#N)c3C)CC[C@H]2C)c(C2CC2)c1` [Example 52, 2-({(3R,6R)-1-[(2-cyclopropyl-4-methoxyphenyl)carbonyl]-6-methylpiperidin-3-yl}oxy)-3-methylpyridine-4-carbonitrile], the results for the 50% inhibitory concentration (IC50) at rat orexin-1 receptor (setting [4]) and at human orexin-2 receptor [1] (setting [5]) were 7.03 µM and 0.056 µM, respectively. For the same compound, the Ki on human orexin-2 receptor [3] (setting [6]) is 0.0044 µM.

With `CSc1c(C#N)ccnc1O[C@@H]1CC[C@@H](C)N(C(=O)c2ccccc2-n2nccn2)C1` [Example 95, 3-(Methylsulfanyl)-2-{[(3R,6R)-6-methyl-1-{[2-(2H-1,2,3-triazol-2-yl)phenyl]carbonyl}piperidin-3-yl]oxy}pyridine-4-carbonitrile], the results for the IC50 on rat orexin-1 receptor (setting [4]) and on human orexin-2 receptor [1] (setting [5]) were 0.306 µM and 0.006 µM, respectively. Also, on human orexin-2 receptor [3] (setting [6]), the Ki was 0.0001 µM.
